From patent publication US20260232818A1, “PHARMACEUTICAL COMPOSITIONS COMPRISING PROTEIN COMPLEXES” (Onchilles Pharma, Inc., priority 2023, published 2026)

What was measured:
[1] = system: human ovarian cancer cells; experiment: Selective cancer cell-killing in ovarian cancer patient samples, cancer cells; assay type: cell-based; conditions: 24 hours; Calcein-AM; FIG. 9B
Source text: Evaluating selective cancer cell-killing in ovarian cancer patient samples. Cancer and non-cancer cells were isolated from primary tumors, intraperitoneal (IP) fluid, omental adipose tissue (common metastatic site), and blood from 6 ovarian cancer patients. The following cells were isolated and tested: cancer cells (digested tumor with depletion of fibroblasts, CD45+ cells, and […] cells), non-cancer immune cells (digested omental cells with depletion of neutrophils or CD45+ cells from tumor tissue), peripheral blood mononuclear cells (PBMCs; B cells, T cells, monocytes, and NK cells), fibroblasts (isolated from tumor samples using fibroblast isolation kit), and IP cells (composed of >90% CD45+ immune cells, including B, T, myeloid, NK cells). Isolated cells were plated and exposed to A2M:MutF, doxorubicin (standard of care chemotherapy), or oxaliplatin (standard of care chemotherapy) for 24 hours. Cell viability was assessed by Calcein-AM.

[2] = Plasma Protection Assay (MutF activity on AAPV-AMC in plasma); assay type: biochemical; conditions: mouse plasma; MutF 400 nM; A2M:MutF 1:2; FIG. 3C
Description: Plasma Protection Assay. MutF (400 nM) was mixed with 200 nM A2M to reach a 1:2 molar ratio (A2M:MutF), followed by 30 minutes incubation at 37° C. in PBS. A plasma protection assay was performed in 384-black well-coated plate by adding 10 μL of sample with either 10 μL of PBS or 10 μL of mouse plasma samples in duplicates. 20 μL of the substrate AAPV-AMC at a concentration of 100 μM was added. Kinetics were measured on Varioskan LUX: 380 nm ex/460 nm (5 nm bandwidth), 37° C., top, 100 msec, 2 min for 16 reads. Vo was calculated as activity measurement.

Human fibrinogen = biological target: T1, Human fibrinogen (Homo sapiens, UniProt P02671+P02675+P02679); experiment: Fibrinogen cleavage assay; assay type: biochemical; conditions: 1 hr at 37° C.; Western Blot; FIG. 6B
T1 construct: purchased Sigma
T1 sequence (P02671 20-629 limits assumed): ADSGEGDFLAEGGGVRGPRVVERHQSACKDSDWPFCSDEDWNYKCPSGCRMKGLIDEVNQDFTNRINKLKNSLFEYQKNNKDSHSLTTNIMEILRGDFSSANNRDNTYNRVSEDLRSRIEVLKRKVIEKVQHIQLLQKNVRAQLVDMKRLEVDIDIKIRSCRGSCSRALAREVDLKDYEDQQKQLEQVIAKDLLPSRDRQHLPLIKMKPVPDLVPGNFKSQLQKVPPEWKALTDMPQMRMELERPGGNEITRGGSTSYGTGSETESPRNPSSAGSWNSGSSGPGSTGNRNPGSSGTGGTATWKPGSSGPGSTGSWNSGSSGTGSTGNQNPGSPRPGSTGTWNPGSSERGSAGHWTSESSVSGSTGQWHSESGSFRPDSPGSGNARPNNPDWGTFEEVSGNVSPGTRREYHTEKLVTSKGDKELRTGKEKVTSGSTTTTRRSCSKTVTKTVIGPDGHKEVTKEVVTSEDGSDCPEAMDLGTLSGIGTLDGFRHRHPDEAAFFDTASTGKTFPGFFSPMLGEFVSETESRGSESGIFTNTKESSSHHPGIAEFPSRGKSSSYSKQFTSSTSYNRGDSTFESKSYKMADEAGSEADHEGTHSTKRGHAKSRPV
T1 sequence (P02675 31-491): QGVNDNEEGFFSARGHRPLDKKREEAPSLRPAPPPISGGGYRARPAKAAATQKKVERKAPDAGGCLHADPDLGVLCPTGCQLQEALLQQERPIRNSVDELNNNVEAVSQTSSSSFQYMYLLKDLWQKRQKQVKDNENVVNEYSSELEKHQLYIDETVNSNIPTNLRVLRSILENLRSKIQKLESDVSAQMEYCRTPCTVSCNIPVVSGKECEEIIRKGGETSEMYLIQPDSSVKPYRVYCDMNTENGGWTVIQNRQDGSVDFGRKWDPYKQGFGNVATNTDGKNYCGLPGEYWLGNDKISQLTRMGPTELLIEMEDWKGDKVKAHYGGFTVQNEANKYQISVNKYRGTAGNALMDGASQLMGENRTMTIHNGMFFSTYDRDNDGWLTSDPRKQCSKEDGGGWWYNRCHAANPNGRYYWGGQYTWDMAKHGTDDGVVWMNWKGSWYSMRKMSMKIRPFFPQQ
T1 sequence (P02679 27-453): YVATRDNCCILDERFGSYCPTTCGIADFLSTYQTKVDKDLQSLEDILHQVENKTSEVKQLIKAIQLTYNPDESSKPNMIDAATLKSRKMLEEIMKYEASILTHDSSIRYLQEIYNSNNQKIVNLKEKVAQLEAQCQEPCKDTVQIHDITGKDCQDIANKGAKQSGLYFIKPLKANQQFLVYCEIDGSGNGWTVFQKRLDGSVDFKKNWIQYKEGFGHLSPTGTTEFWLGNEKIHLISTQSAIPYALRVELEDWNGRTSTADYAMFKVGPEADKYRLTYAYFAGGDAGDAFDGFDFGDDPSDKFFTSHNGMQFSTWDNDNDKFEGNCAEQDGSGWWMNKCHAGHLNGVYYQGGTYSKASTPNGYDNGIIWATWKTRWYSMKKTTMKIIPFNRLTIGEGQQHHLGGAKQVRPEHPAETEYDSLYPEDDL
Description: Fibrinogen cleavage assay. MutF was mixed with different concentrations of A2M to reach various molar ratios, followed by a 30-minute incubation at 37° C. in PBS. Human fibrinogen (Sigma) was incubated with pre-mixed A2M:MutF protein complexes at different molar ratios for 1 hr at 37° C. Samples containing 5 ug of fibrinogen were loaded on 4-15% gel and fibrinogen was detected by Western Blot with an anti-fibrinogen (cell signaling Technology). Gels were imaged by iBright 1500.

Elastin-F = experiment: Elastin cleavage assay; assay type: biochemical; conditions: overnight at 37° C.; FIG. 6C
Description: Elastin cleavage assay. MutF was mixed with different concentrations of A2M to reach various molar ratios, followed by a 30-minute incubation at 37° C. in PBS. Elastin-F (1:100) was incubated with pre-mixed A2M:MutF protein complexes overnight at 37° C., and the degraded fluorescent signal was measured in the supernatant.

[3] = Coagulation Assay (PT, PTT, fibrinogen in plasma after IV injection); assay type: in vivo, Mice; conditions: mouse plasma 5 min after IV injection of 480 ug
Description: Coagulation Assay. Mice were injected with 200 μL of 480 ug of MutF or purified A2M:MutF protein complexes at a 1:2 molar ratio. Blood was collected in sodium citrate tubes and centrifuged at 1500×g for 15 minutes. 300 μl of plasma were frozen and shipped to IDEXX to be analyzed for Prothrombin time, Partial Thromboplastin time, and concentration of Fibrinogen.

COc1cccc2c1C(=O)c1c(O)c3c(c(O)c1C2=O)C[C@@](O)(C(=O)CO)C[C@@H]3O[C@H]1C[C@H](N)[C@H](O)[C@H](C)O1 [doxorubicin, reference compound]
Killing of cancer cells from chemo-naïve vs chemo-treated patients [1]: reduced killing of cancer cells isolated from chemo-treated relative to chemo-naïve patients

O=C1[O][Pt]2([NH][C@@H]3CCCC[C@H]3[NH]2)[O]C1=O [oxaliplatin, reference compound]
Killing of cancer cells from chemo-naïve vs chemo-treated patients [1]: reduced killing of cancer cells isolated from chemo-treated relative to chemo-naïve patients

MutF: porcine pancreatic elastase (PPE) protein 'Mutant F', Q211F, SEQ ID NO: 5
MutF activity in plasma [2]: plasma inhibits MutF activity
Fibrinogen cleavage (Human fibrinogen): does cleave fibrinogen
Elastin cleavage (fluorescent signal) (Elastin-F): does cleave elastin
Prothrombin time ([3]; FIG. 7A): increases PT and PTT times
Partial Thromboplastin time ([3]; FIG. 7B): increases PT and PTT times
Concentration of fibrinogen in plasma ([3]; FIG. 7C): causes reductions in fibrinogen levels
